Each block holds one compound with its values, some of them ahead of it.
Tests used:
[1] = tested on: immature female rats (E2-stimulated uterus); experiment: Immature female rat assay, antiuterotrophic activity; type: in vivo
From the text: (§1) In Vivo Studies—Immature Female Rat Assay.
Antiuterotrophic Activity
(§2) Experiments have been conducted as described in Eppenberger U et al, Am J Clin Oncol 14 (suppl. 2), S5-S14, 1991.
This concentration of E2 was the lowest producing near-maximal effect and was chosen on the basis of preliminary dose-response experiments.

[2] = tested on: immature female rats (uterine weight); experiment: Immature female rat assay, uterotrophic activity; type: in vivo; conditions: for increase of uterine weight compared with vehicle treated control rats: 0.1 mg/kg/day; for uterine weights versus control rats: 0.01, 0.1, 1 and 10 mg/kg·day; for uterine weight versus control rats: 0.01, 1 and 10 mg/kg/day
From the text: as §1, §2

OVX rats [3] = experiment: Four-week OVX rat assay, serum cholesterol levels; type: in vivo; conditions: for lowering of serum cholesterol levels, comparison in words: with respect to controls, compared with E2 / Compound II
Procedure: (§3) The experiments have been conducted according to Kaln D N, Bone Mineral 15, 175-192, 1991 and Grese T A et al J Med Chem 40, 146-167, 1997.
(§4) The effects of the tested compounds were evaluated also in 9-11-month-old OVX rats that were dosed for 4 weeks post-surgery and compared with OVX and Sham controls.
(§5) Tissue-specific estrogen agonist effects were examined utilizing uterine weight, uterine histology, uterine eosinophil peroxidase activity (EPO), bone mineral density (BMD), and serum cholesterol levels as end points.
Effect on Serum Cholesterol Levels

MCF-7 = experiment: cells; conditions: for concentration of total growth inhibition: 72-hours incubation; for IC50: read-out: Inhibitory Concentration IC50
Procedure: In Vitro Study—MCF-7 Cell Proliferation
The tumor cells were obtained from American Type Culture Collection (ATCC HTB-22). The culture media used was Minimum Essential medium with 10% fetal bovine serum, and media were supplemented with 1% antibiotic-antimycotic. Aliquots of 100 μl of cell suspension (5×10^3/well) were placed in 96-well microtiter plates in an atmosphere of 5% CO2 at 37° C. After 24 hours, 100 μl of growth medium, 2 μl of test solution, mitomycin or vehicle (DMSO, final concentration 0.4%), was added respectively per well in duplicate for an additional 72-hours incubation. At the end of incubation, 20 μl of alamarBlue 75% reagent was added to each well for another 6-hour incubation before detection of cell viability by fluorescent intensity (excitation at 530 nm and emission at 590 nm).

Solubility in water = type: physicochemical; conditions: r.t.
human ER-α = target: T1, human ER-α (Homo sapiens, UniProt P03372); experiment: Human estrogen receptor-α binding
T1 sequence (P03372 1-595): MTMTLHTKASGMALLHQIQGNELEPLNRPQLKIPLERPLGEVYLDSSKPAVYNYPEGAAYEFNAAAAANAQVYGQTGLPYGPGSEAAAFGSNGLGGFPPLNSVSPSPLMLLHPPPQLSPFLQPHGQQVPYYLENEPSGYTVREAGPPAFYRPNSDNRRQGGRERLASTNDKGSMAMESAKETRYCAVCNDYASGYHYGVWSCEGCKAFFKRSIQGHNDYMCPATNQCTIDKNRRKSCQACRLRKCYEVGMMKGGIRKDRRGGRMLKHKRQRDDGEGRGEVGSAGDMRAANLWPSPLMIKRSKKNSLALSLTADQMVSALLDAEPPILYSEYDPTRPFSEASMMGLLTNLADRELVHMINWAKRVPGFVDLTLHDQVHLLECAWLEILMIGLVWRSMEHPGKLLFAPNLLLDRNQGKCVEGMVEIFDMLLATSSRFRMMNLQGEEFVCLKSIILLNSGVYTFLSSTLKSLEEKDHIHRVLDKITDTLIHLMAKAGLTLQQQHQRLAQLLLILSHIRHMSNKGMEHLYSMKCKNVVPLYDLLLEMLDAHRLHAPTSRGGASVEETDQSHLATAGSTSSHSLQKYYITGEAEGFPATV
From the text: (§6) In Vitro Study—Human Estrogen Receptor-α and -β (ER-α and ER-β)

human ER-β = human ER-β (Homo sapiens, UniProt Q92731); experiment: Human estrogen receptor-β binding; conditions: for affinity for ER-β higher than raloxifene: compared with raloxifene
From the text: as §6

OVX rats [4] = experiment: Four-week OVX rat assay, bone mineral density (lumbar spine L1-4) by DEXA; type: in vivo; conditions: 4 weeks
Procedure: Effects in the Ovariectomized (OVX) Rat Model
as §3, §4, §5
Effect on Bone Mineral Density (BMD) (Lumbar Spine L1-4)
Bone mineral density (BMD) was measured by DEXA (Dual Energy XRay Absorptiometry) using a Hologic QDR-1000 plus instrument equipped with dedicated software for small animal measurements. An ultrahigh-resolution mode (line spacing 0.0254 cm and resolution 0.0127 cm) was used with a collimator of 0.63 mm diameter. This technique provides an integrated measure of both cortical and trabecular bone.
In vivo DEXA measurements were carried out immediately before surgery (baseline scan) and 4 weeks after surgery. The anatomic region examined was the lumbar spine L1-4.
All animals were anesthetized before scanning with a mixture of ketamine and p-promazine. For each scan a rat was placed in a supine position with the spine parallel to the long axis of the densitometer table. The lumbar spine was scanned using the pelvic bones as landmark; analysis of this site was accomplished by dividing vertebra and intervertebral spaces with subregional high resolution software and including only target vertebra in the global region of interest.
Percent protection was calculated by the following formula: % protection=[(% chance BMDtest compound−% chance BMDOVX control)/(% chance BMDsham control−% chance BMDOVX control)]×100.

OVX rats [5] = experiment: Four-week OVX rat assay, uterine effects (weight, eosinophil peroxidase, histology); conditions: in vivo
Procedure: as §3, §4, §5
The degree of eosinophilic peroxidase induction of the uterus may be a useful marker for estrogen-effected growth responses (Lyttle C R and DeSombre E R Proc Natl Acad Sci USA 74, 3162-3166, 1977).

[6] = oral, E2 0.05 mg/kg per os for 3 days

Sequence of human ER-β (Q92731 whole entry): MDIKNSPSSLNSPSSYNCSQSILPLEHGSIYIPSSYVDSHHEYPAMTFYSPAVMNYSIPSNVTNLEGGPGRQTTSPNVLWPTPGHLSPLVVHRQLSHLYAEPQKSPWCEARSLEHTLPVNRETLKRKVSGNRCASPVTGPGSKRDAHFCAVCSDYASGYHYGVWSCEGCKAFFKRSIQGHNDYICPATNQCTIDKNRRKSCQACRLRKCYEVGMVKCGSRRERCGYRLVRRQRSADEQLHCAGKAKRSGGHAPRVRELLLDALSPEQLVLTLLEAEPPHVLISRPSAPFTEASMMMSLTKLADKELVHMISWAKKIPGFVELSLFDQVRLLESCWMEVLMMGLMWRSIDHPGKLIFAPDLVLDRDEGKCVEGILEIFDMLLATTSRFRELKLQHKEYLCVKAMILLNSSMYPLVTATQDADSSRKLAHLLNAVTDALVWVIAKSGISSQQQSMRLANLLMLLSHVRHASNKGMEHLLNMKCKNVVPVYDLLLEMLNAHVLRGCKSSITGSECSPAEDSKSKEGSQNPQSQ

Compound: O=C(c1ccc(OCCN2CCCCC2)cc1)c1c(-c2ccc(O)cc2)sc2cc(O)ccc12 [raloxifene]
ED50 = dose required to produce 50% reduction in estradiol-stimulated growth [1, 6]: 0.39 mg/kg·day
increase of uterine weight compared with vehicle treated control rats [2]: 32%
uterine weights versus control rats [2]: not significantly different from control rats
uterine weight versus control rats [2]: not significantly different from control rats
lowering of serum cholesterol levels, comparison in words (OVX rats [3]): significantly less potent
concentration of total growth inhibition (MCF-7): 18 µM
IC50 (MCF-7; Homo sapiens, MCF7, 72 h): 11000 nM

Compound: CS(=O)(=O)O.Oc1ccc2c(c1)OCC(c1ccccc1)=C2Cc1ccc(OCCN2CCCCC2)cc1 [Example 43, 3-phenyl-4-(4-(2-(N-piperidinyl)ethoxy)benzyl)-7-hydroxychrom-3-ene methansulfonate (1:1)]
solubility (Solubility in water): > 1000 µg/mL

Ki (human ER-α): 0.017 ± 0.002 nM
Ki (human ER-β): 0.099 ± 0.005 nM
affinity for ER-β higher than raloxifene (human ER-β): 16 fold
Compound: COc1ccc(C2=C(Cc3ccc(OCCN4CCCCC4)cc3)c3ccc(O)cc3OC2)cc1.Cl [Compound II, 3-(4-methoxy)phenyl-4-[[4-[2-(1-piperidinyl)ethoxyl]phenyl]methyl]-2H-1-benzopyran-7-ol hydrochloride]
dose at which total antagonism of E2 uterotrophic action was observed ([1]; oral): 0.1-1 mg/kg·day
ED50 = dose required to produce 50% reduction in estradiol-stimulated growth [1, 6]: 0.016 mg/kg·day
uterine weights versus control rats [2]: not significantly different from control rats
% protection of BMD (OVX rats [4]; second experiment, 0.1 mg/kg): 60%
% protection of BMD (OVX rats [4]; second experiment, 1 mg/kg·day): 119%
decrease of total serum cholesterol, inhibition (OVX rats [3]; 0.1 mg/kg·day): 75%
decrease of total serum cholesterol, inhibition (OVX rats [3]; 1 mg/kg·day): 81%
lowering of serum cholesterol levels, comparison in words (OVX rats [3]): as efficacious as E2

Compound: COc1ccc2c(c1)OC(C)(C)[C@@H](c1ccccc1)[C@@H]2c1ccc(OCCN2CCCC2)cc1 [levormeloxifene]
inhibition of E2 stimulation of the uterus ([1]; at 1 mg/kg/day, partial antagonism): 40-45%
uterine weights versus control rats [2]: significantly increased
maximal agonist activity, % that of E2 ([2]; at 1 mg/kg): 60-65%
lowering of serum cholesterol levels, comparison in words (OVX rats [3]): significantly less potent
eosinophilic peroxidase activity compared to OVX uteri (OVX rats [5]): significantly increased
uterine epithelia / endometrium histology (OVX rats [5]): full disappearance of epithelium atrophy

Compound: 17α-ethynil estradiol [reference compound]
increase of uterine wet weight compared with vehicle-treated controls ([1]; 0.05 mg/kg per os for 3 days): 170-220%
% protection of BMD (OVX rats [4]; first experiment, 0.1 mg/kg): ~50%
% protection of BMD (OVX rats [4]; second experiment, 0.1 mg/kg): ~95%
uterine epithelia / endometrium histology (OVX rats [5]): full disappearance of epithelium atrophy

Compound: Oc1ccc2c(c1)OCC(c1ccccc1)=C2Cc1ccc(OCCN2CCCCC2)cc1 [Compound I, 3-phenyl-4-(4-(2-(N-piperidinyl)ethoxy)benzyl)-7-hydroxychrom-3-ene]
Ki (human ER-α): 0.041 ± 0.011 nM
Ki (human ER-β): 0.157 ± 0.028 nM
affinity for ER-β higher than raloxifene (human ER-β): 10 fold
dose at which total antagonism of E2 uterotrophic action was observed ([1]; oral): 1 to 10 mg/kg/day
EC50, inhibition of the uterotrophic action of E2 [1, 6]: 0.33 mg/kg·day
increase of uterine weight compared with vehicle treated control rats [2]: 17%
uterine weight versus control rats [2]: not significantly different from control rats
% protection of BMD (OVX rats [4]; first experiment, 10 mg/kg/day): 47%
maximal lowering of cholesterol, inhibition relative to the OVX control (OVX rats [3]; 10 mg/kg): 67%
ED50 (OVX rats [3]; Rattus norvegicus, 672 h, 0.1-10 mg/kg day, 4 weeks, read-out: ED50, decrease of total serum cholesterol (half maximal efficacy)): 0.12 mg/kg
concentration of total growth inhibition (MCF-7): 11 µM
CC50 (MCF-7; Homo sapiens, MCF7, 72 h, read-out: 50% lethal concentrations (LC50)): 20000 nM
IC50 (MCF-7; Homo sapiens, MCF7, 72 h): 6500 nM

Compound: CC/C(=C(\c1ccccc1)c1ccc(OCCN(C)C)cc1)c1ccccc1 [tamoxifene]
concentration of total growth inhibition (MCF-7): 11 µM

Source: patent US6951883B2, “2H-1-benzopyran derivatives processes for their preparation and pharmaceutical compositions thereof” (Chiesi Farmaceutici S.p.A., priority 2001, dated 2005)
